Test results: ChEMBL document CHEMBL6083262, “Stereorandomized Oncocins with Preserved Ribosome Binding and Antibacterial Activity” (J Med Chem, 2024)
Converted amounts (≈) assume the structure as drawn. The source made the active and inactive calls. No cut-off for these calls is given here. Non-standard residues stand in square brackets, D forms with d. Residues, ends and D or L forms follow the SMILES beside them. ξ: configuration not given here. ξY = NC(Cc1ccc(O)cc1)C(=O)O; ξR = N=C(N)NCCCC(N)C(=O)O; ξN = NC(=O)CC(N)C(=O)O; Nleu = CC(C)CNCC(=O)O; ξI = CCC(C)C(N)C(=O)O; Nlys = NCCCCNCC(=O)O; ξP = O=C(O)C1CCCN1

Experiments:
Klebsiella pneumoniae [1] = experiment: Antibacterial activity against multidrug-resistant Klebsiella pneumoniae clinical isolate OXA-48 incubated for 16 to 20 hrs in 12.5 % muller hinton medium by broth microdilution method; assay type: functional; conditions: time 16-20 hrs
Pseudomonas aeruginosa [2] = experiment: Antibacterial activity against multidrug-resistant Pseudomonas aeruginosa clinical isolate ZEM-1A incubated for 16 to 20 hrs in full muller hinton medium by broth microdilution method; assay type: functional; conditions: time 16-20 hrs
Pseudomonas aeruginosa [3] = experiment: Antibacterial activity against multidrug-resistant Pseudomonas aeruginosa clinical isolate ZEM9A incubated for 16 to 20 hrs in full muller hinton medium by broth microdilution method; assay type: functional; conditions: time 16-20 hrs
Escherichia coli [4] = experiment: Antimicrobial activity against Escherichia coli W3110 incubated for 16 to 20 hrs in 12.5 % muller hinton medium by broth microdilution method; assay type: functional; conditions: time 16-20 hrs
Acinetobacter baumannii = experiment: Antimicrobial activity against Acinetobacter baumannii ATCC 19606 incubated for 16 to 20 hrs in full muller hinton medium by broth microdilution method; assay type: functional; conditions: time 16-20 hrs
Klebsiella pneumoniae [5] = experiment: Antimicrobial activity against Klebsiella pneumoniae NCTC 418 incubated for 16 to 20 hrs in full muller hinton medium by broth microdilution method; assay type: functional; conditions: time 16-20 hrs
Pseudomonas aeruginosa [6] = experiment: Antibacterial activity against multidrug-resistant Pseudomonas aeruginosa PA14 2P4 harboring pmrB mutant incubated for 16 to 20 hrs in full muller hinton medium by broth microdilution method; assay type: functional; conditions: time 16-20 hrs
Pseudomonas aeruginosa [7] = experiment: Antibacterial activity against multidrug-resistant Pseudomonas aeruginosa PA14 incubated for 16 to 20 hrs in full muller hinton medium by broth microdilution method; assay type: functional; conditions: time 16-20 hrs
Pseudomonas aeruginosa [8] = experiment: Antibacterial activity against multidrug-resistant Pseudomonas aeruginosa PA14 4.18 harboring pmrB mutant incubated for 16 to 20 hrs in full muller hinton medium by broth microdilution method; assay type: functional; conditions: time 16-20 hrs
Klebsiella pneumoniae [9] = experiment: Antimicrobial activity against Klebsiella pneumoniae NCTC 418 incubated for 16 to 20 hrs in 12.5 % muller hinton medium by broth microdilution method; assay type: functional; conditions: time 16-20 hrs
Pseudomonas aeruginosa [10] = experiment: Antibacterial activity against multidrug-resistant Pseudomonas aeruginosa PA14 4.13 harboring phoQ mutant incubated for 16 to 20 hrs in full muller hinton medium by broth microdilution method; assay type: functional; conditions: time 16-20 hrs
Staphylococcus aureus [11] = experiment: Antimicrobial activity against methicillin-resistant Staphylococcus aureus COL incubated for 16 to 20 hrs in full muller hinton medium by broth microdilution method; assay type: functional; conditions: time 16-20 hrs
Enterobacter cloacae = experiment: Antibacterial activity against multidrug-resistant Enterobacter cloacae incubated for 16 to 20 hrs in full muller hinton medium by broth microdilution method; assay type: functional; conditions: time 16-20 hrs
Klebsiella pneumoniae [12] = experiment: Antibacterial activity against multidrug-resistant Klebsiella pneumoniae clinical isolate OXA-48 incubated for 16 to 20 hrs in full muller hinton medium by broth microdilution method; assay type: functional; conditions: time 16-20 hrs
[13] = Hemolytic activity in human RBC incubated for 4 hrs; assay type: toxicity, cell-based; conditions: erythrocyte
rRNA = experiment: Binding affinity to [gamma32 P-ATP] labeled Escherichia coli MG1655 23S ribosomal RNA (5-CCCTTGGGACCTACTTC-3') at U2506 position assessed as increase in band intensity at 1 uM incubated for 2.5 hrs in full muller hinton medium by CMCT based gel electrophoresis; assay type: nucleic-acid assay
Escherichia coli [14] = experiment: Bacteriostatic activity against Escherichia coli at 8 times MIC in full muller hinton medium by Time-kill assay; assay type: functional, organism-based
Klebsiella pneumoniae [15] = experiment: Bacteriostatic activity against Klebsiella pneumoniae assessed as membrane perturbation at 8 times MIC in full muller hinton medium by transmission electron microscopic analysis; assay type: functional, organism-based
Klebsiella pneumoniae [16] = experiment: Bacteriostatic activity against Klebsiella pneumoniae assessed as detachment of inner membrane from outer membrane by measuring a large void at 8 times MIC in full muller hinton medium by transmission electron microscopic analysis; assay type: functional, organism-based
Escherichia coli [17] = experiment: Bacteriostatic activity against Escherichia coli assessed as detachment of inner membrane from outer membrane by measuring a large void at 8 times MIC in full muller hinton medium by transmission electron microscopic analysis; assay type: functional, organism-based
Klebsiella pneumoniae [18] = experiment: Bacteriostatic activity against Klebsiella pneumoniae at 8 times MIC in full muller hinton medium by Time-kill assay; assay type: functional, organism-based
Klebsiella pneumoniae [19] = experiment: Bacteriostatic activity against Klebsiella pneumoniae assessed as small intracellular vesicles at 8 times MIC in full muller hinton medium by transmission electron microscopic analysis; assay type: functional, organism-based
Escherichia coli [20] = experiment: Bacteriostatic activity against Escherichia coli assessed as membrane perturbation at 8 times MIC in full muller hinton medium by transmission electron microscopic analysis; assay type: functional, organism-based
Pseudomonas aeruginosa [21] = experiment: Antimicrobial activity against Pseudomonas aeruginosa PAO1 incubated for 16 to 20 hrs in full muller hinton medium by broth microdilution method; assay type: functional; conditions: time 16-20 hrs
Escherichia coli [22] = experiment: Bacteriostatic activity against Escherichia coli assessed as small intracellular vesicles at 8 times MIC in full muller hinton medium by transmission electron microscopic analysis; assay type: functional, organism-based
Staphylococcus aureus [23] = experiment: Antimicrobial activity against methicillin-resistant Staphylococcus aureus COL incubated for 16 to 20 hrs in 12.5 % muller hinton medium by broth microdilution method; assay type: functional; conditions: time 16-20 hrs
Escherichia coli [24] = experiment: Antimicrobial activity against Escherichia coli W3110 incubated for 16 to 20 hrs in full muller hinton medium by broth microdilution method; assay type: functional; conditions: time 16-20 hrs

Compound	MIC (Pseudomonas aeruginosa [2])	MIC (Pseudomonas aeruginosa [3])	MIC (Escherichia coli [4])	MIC (Klebsiella pneumoniae [5])	MIC (Pseudomonas aeruginosa [6])	MIC (Pseudomonas aeruginosa [7])	MIC (Pseudomonas aeruginosa [8])	MIC (Pseudomonas aeruginosa [10])	MIC (Staphylococcus aureus [11])	MHC [13]	Activity (rRNA)	Activity (Escherichia coli [14])	Activity (Klebsiella pneumoniae [15])	Activity (Klebsiella pneumoniae [16])	Activity (Escherichia coli [17])	Activity (Klebsiella pneumoniae [18])	Activity (Klebsiella pneumoniae [19])	Activity (Escherichia coli [20])	Activity (Escherichia coli [22])	MIC (Staphylococcus aureus [23])	other results
CC(C)C[C@H](NC(=O)CN(CC(C)C)C(=O)[C@H](CC(C)C)NC(=O)CN(CCCCN)C(=O)[C@H](CC(C)C)NC(=O)CN(CC(C)C)C(=O)[C@H](CCCCN)NC(=O)CN(CC(C)C)C(=O)[C@H](CC(C)C)NC(=O)CN(CCCCN)C(=O)[C@@H](N)CCCCN)C(N)=O (H-K[Nlys]L[Nleu]K[Nleu]L[Nlys]L[Nleu]L-NH2)	> 64 µg/mL	> 64 µg/mL	2 µg/mL (≈ 1.51 µM)	> 32 µg/mL	> 64 µg/mL	> 32 µg/mL	> 32 µg/mL	> 32 µg/mL	> 32 µg/mL												MIC (Klebsiella pneumoniae [1]): 64 µg/mL (≈ 48.4 µM); MIC (Acinetobacter baumannii): > 32 µg/mL; MIC (Klebsiella pneumoniae [9]): > 32 µg/mL; MIC (Enterobacter cloacae): 64 µg/mL (≈ 48.4 µM); MIC (Klebsiella pneumoniae [12]): > 64 µg/mL
H-VDKPPYLPRPRPPRRIYNR-NH2 [ONCOCIN]	> 64 µg/mL	> 64 µg/mL			> 64 µg/mL	> 64 µg/mL	> 64 µg/mL	> 64 µg/mL	> 64 µg/mL	> 1000 µg/mL	Active	Active	Active; Few Membrane Perturbation Observed	Active	Active	Active	Active	Active; Few Membrane Perturbation Observed	Active		MIC (Pseudomonas aeruginosa [21]): > 64 µg/mL
CCC(C)C(NC(=O)C(CCCNC(=N)N)NC(=O)C(CCCNC(=N)N)NC(=O)[C@@H]1CCCN1C(=O)[C@@H]1CCCN1C(=O)[C@H](CCCNC(=N)N)NC(=O)[C@@H]1CCCN1C(=O)[C@H](CCCNC(=N)N)NC(=O)[C@@H]1CCCN1C(=O)[C@H](CC(C)C)NC(=O)[C@H](Cc1ccc(O)cc1)NC(=O)[C@@H]1CCCN1C(=O)[C@@H]1CCCN1C(=O)[C@H](CCCCN)NC(=O)[C@H](CC(=O)O)NC(=O)[C@@H](N)C(C)C)C(=O)NC(Cc1ccc(O)cc1)C(=O)NC(CC(N)=O)C(=O)NC(CCCNC(=N)N)C(N)=O (stereo partly drawn) (H-VDKPPYLPRPRPP[ξR][ξR][ξI][ξY][ξN][ξR]-NH2)			1 µg/mL (≈ 0.418 µM)	4 µg/mL (≈ 1.67 µM)					> 64 µg/mL	> 1000 µg/mL										> 16 µg/mL	MIC (Escherichia coli [24]): 8 µg/mL (≈ 3.35 µM)
CC[C@@H](C)[C@@H](NC(=O)[C@@H](CCCNC(=N)N)NC(=O)[C@H](CCCNC(=N)N)NC(=O)[C@@H]1CCCN1C(=O)[C@@H]1CCCN1C(=O)[C@H](CCCNC(=N)N)NC(=O)[C@@H]1CCCN1C(=O)[C@H](CCCNC(=N)N)NC(=O)[C@@H]1CCCN1C(=O)[C@H](CC(C)C)NC(=O)[C@H](Cc1ccc(O)cc1)NC(=O)[C@@H]1CCCN1C(=O)[C@@H]1CCCN1C(=O)[C@H](CCCCN)NC(=O)[C@H](CC(=O)O)NC(=O)[C@@H](N)C(C)C)C(=O)N[C@H](Cc1ccc(O)cc1)C(=O)N[C@H](CC(N)=O)C(=O)N[C@H](CCCNC(=N)N)C(N)=O (H-VDKPPYLPRPRPPR[dR][dI][dY][dN][dR]-NH2)		> 64 µg/mL			> 64 µg/mL	> 64 µg/mL			> 64 µg/mL	> 1000 µg/mL	Active	Active	Active; Few Membrane Perturbation Observed	Active	Active	Active	Active	Active; Few Membrane Perturbation Observed	Active		
CCC(C)C(NC(=O)C(CCCNC(=N)N)NC(=O)C(CCCNC(=N)N)NC(=O)C1CCCN1C(=O)[C@@H]1CCCN1C(=O)[C@H](CCCNC(=N)N)NC(=O)[C@@H]1CCCN1C(=O)[C@H](CCCNC(=N)N)NC(=O)[C@@H]1CCCN1C(=O)[C@H](CC(C)C)NC(=O)[C@H](Cc1ccc(O)cc1)NC(=O)[C@@H]1CCCN1C(=O)[C@@H]1CCCN1C(=O)[C@H](CCCCN)NC(=O)[C@H](CC(=O)O)NC(=O)[C@@H](N)C(C)C)C(=O)NC(Cc1ccc(O)cc1)C(=O)NC(CC(N)=O)C(=O)NC(CCCNC(=N)N)C(N)=O (stereo partly drawn) (H-VDKPPYLPRPRP[ξP][ξR][ξR][ξI][ξY][ξN][ξR]-NH2)			1 µg/mL (≈ 0.418 µM)	4 µg/mL (≈ 1.67 µM)					> 64 µg/mL	> 1000 µg/mL										> 16 µg/mL	MIC (Escherichia coli [24]): 8 µg/mL (≈ 3.35 µM)
